DC50 and Dmax data for five compounds are collected here from US20250059198A1, “BRM DEGRADING COMPOUNDS AND ASSOCIATED METHODS OF USE” (Arvinas Operations, Inc., priority 2021, published 2025).

The target in the test is T1, BRM (Homo sapiens, UniProt P51531).
T1 construct: Western Blot Screen of BRM Degradation in SW1573 Cells; endogenous in cells; host or cells: SW1573 cells
Briefly: BRM degradation (Dmax and DC50) in SW1573 cells, Western blot screen / In-Cell Western screen. The test is classed as cell-based. The following applies: overnight (18-20 hours) treatment; for Dmax: read-out: Dmax (%)** (% degraded). A digest of the protocol: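 Dmax and DC50 were derived from BRM levels normalised to an alpha-tubulin control, measured by chemiluminescent Western blotting of lysates or by PFA-fixed In-Cell Western on LI-COR Odyssey. SW1573 cells received compound overnight (18–20 h, 0.1% DMSO final).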

T1 sequence (P51531 whole entry): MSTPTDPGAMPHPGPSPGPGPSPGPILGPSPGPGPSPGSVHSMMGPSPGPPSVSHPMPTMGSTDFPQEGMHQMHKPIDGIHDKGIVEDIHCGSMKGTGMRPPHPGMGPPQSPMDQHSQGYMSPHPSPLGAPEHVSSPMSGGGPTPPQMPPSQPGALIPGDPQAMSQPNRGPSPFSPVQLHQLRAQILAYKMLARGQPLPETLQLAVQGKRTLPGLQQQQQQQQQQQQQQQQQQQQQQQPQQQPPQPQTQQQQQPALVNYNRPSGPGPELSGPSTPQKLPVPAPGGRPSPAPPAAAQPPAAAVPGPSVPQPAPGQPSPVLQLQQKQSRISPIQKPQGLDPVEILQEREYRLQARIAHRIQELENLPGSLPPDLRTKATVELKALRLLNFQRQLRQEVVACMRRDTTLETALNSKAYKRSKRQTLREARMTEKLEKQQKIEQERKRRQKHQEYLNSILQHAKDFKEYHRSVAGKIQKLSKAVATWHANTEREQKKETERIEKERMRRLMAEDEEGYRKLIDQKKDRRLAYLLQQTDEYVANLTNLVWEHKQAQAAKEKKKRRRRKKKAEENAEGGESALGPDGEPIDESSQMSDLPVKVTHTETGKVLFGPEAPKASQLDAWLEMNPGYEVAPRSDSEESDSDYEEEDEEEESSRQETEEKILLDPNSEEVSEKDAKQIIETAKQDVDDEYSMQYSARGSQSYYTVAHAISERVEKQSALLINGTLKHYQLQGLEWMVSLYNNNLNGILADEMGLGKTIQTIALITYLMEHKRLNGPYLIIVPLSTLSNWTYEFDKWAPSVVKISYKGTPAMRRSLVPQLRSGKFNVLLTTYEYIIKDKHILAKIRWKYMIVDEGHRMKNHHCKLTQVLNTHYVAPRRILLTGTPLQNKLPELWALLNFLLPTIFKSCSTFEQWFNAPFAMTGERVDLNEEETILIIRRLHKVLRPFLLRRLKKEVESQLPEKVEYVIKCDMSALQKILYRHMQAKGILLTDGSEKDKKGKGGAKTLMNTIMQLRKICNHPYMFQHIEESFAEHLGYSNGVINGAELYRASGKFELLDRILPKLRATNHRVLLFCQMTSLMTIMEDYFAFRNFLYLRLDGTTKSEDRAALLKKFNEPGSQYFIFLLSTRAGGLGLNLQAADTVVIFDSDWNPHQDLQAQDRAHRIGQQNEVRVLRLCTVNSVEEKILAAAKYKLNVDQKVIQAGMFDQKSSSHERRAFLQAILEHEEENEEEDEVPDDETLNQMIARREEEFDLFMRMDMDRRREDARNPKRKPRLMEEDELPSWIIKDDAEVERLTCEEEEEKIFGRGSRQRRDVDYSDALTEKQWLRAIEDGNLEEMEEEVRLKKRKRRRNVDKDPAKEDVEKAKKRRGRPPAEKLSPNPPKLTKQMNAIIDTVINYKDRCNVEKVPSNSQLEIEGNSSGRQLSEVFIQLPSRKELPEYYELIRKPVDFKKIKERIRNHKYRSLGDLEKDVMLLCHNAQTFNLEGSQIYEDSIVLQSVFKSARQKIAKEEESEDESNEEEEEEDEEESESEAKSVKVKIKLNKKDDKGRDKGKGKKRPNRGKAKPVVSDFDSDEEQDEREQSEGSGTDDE

With `Cc1ncsc1-c1ccc([C@H](C)NC(=O)[C@@H]2C[C@@H](O)CN2C(=O)[C@@H](c2cc(N3CCC(OC4CCN(C[C@H]5C[C@H](N6CCOC7(CCN(c8cc(-c9ccccc9O)nnc8N)CC7)C6)C5)CC4)CC3)no2)C(C)C)cc1` [Compound 56, (2S,4R)-4-hydroxy-N-[(1S)-1-[4-(4-methyl-1,3-thiazol-5-yl)phenyl]ethyl]-1-[(2R)-3-methyl-2-(3-{4-[(1-{[(1r,3r)-3-{9-[3-amino-6-(2-hydroxyphenyl)pyridazin-4-yl]-1-oxa-4,9-diazaspiro[5.5]undecan-4-yl}cyclobutyl]methyl}piperidin-4-yl)oxy]piperidin-1-yl}-1,2-oxazol-5-yl)butanoyl]pyrrolidine-2-carboxamide], the DC50 (in general, the concentration at which degradation of the target reaches its halfway point) was less than 2.5 nM and the Dmax (commonly the largest share of the target that was removed) is more than 75%. Take `CC(C)[C@H](C(=O)N1C[C@H](O)C[C@H]1C(=O)N[C@@H](C)c1ccc(C#N)cc1)c1cc(N2CCC(OCCN3CCC(Oc4cc(N5C6CCC5CN(c5cc(-c7ccccc7O)nnc5N)C6)ccn4)CC3)CC2)no1` [Compound 150, (2S,4R)-1-[(2S)-2-{3-[4-(2-{4-[(4-{3-[3-amino-6-(2-hydroxyphenyl)pyridazin-4-yl]-3,8-diazabicyclo[3.2.1]octan-8-yl}pyridin-2-yl)oxy]piperidin-1-yl}ethoxy)piperidin-1-yl]-1,2-oxazol-5-yl}-3-methylbutanoyl]-N-[(1S)-1-(4-cyanophenyl)ethyl]-4-hydroxypyrrolidine-2-carboxamide]: the DC50 is not below 30 nM. Same read-out and setting: under `Cc1ncsc1-c1ccc([C@H](C)NC(=O)[C@@H]2C[C@@H](O)CN2C(=O)[C@@H](c2cc(N3CCC(CN4CCC(O[C@H]5C[C@H](N6CCC(C(C)c7cn(-c8cc(-c9ccccc9O)nnc8N)cn7)CC6)C5)CC4)CC3)no2)C(C)C)cc1` (stereo partly drawn) [Compound 85, (2S,4R)-4-hydroxy-N-[(1S)-1-[4-(4-methyl-1,3-thiazol-5-yl)phenyl]ethyl]-1-[(2R)-3-methyl-2-{3-[4-({4-[(1r,3r)-3-[4-(1-{1-[3-amino-6-(2-hydroxyphenyl)pyridazin-4-yl]-1H-imidazol-4-yl}ethyl)piperidin-1-yl]cyclobutoxy]piperidin-1-yl}methyl)piperidin-1-yl]-1,2-oxazol-5-yl}butanoyl]pyrrolidine-2-carboxamide] stands not below 30 nM. Turning to `Cc1ncsc1-c1ccc([C@H](C)NC(=O)[C@@H]2C[C@@H](O)CN2C(=O)[C@@H](c2cc(N3CCC(CN4CCC5(CC4)CC(CN4CCC(Oc6cc(N7C8CCC7CN(c7cc(-c9ccccc9O)nnc7N)C8)ccn6)CC4)C5)CC3)no2)C(C)C)cc1` [Compound 32, (2S,4R)-1-[(2R)-2-[3-(4-{[2-({4-[(4-{3-[3-amino-6-(2-hydroxyphenyl)pyridazin-4-yl]-3,8-diazabicyclo[3.2.1]octan-8-yl}pyridin-2-yl)oxy]piperidin-1-yl}methyl)-7-azaspiro[3.5]nonan-7-yl]methyl}piperidin-1-yl)-1,2-oxazol-5-yl]-3-methylbutanoyl]-4-hydroxy-N-[(1S)-1-[4-(4-methyl-1,3-thiazol-5-yl)phenyl]ethyl]pyrrolidine-2-carboxamide], the DC50 was less than 2.5 nM and the Dmax was more than 75%.

With `CC(C)[C@@H](C(=O)N1C[C@H](O)C[C@H]1C(=O)N[C@@H](C)c1ccc(C#N)cc1)c1cc(N2CCC(CN3CCC(O[C@H]4C[C@H](Oc5cc(N6C7CC6CN(c6cc(-c8ccccc8O)nnc6N)C7)ccn5)C4)CC3)CC2)no1` [Compound 17, (2S,4R)-N-[(1S)-1-(4-cyanophenyl)ethyl]-4-hydroxy-1-[(2R)-3-methyl-2-{3-[4-({4-[(1r,3r)-3-[(4-{3-[3-amino-6-(2-hydroxyphenyl)pyridazin-4-yl]-3,6-diazabicyclo[3.1.1]heptan-6-yl}pyridin-2-yl)oxy]cyclobutoxy]piperidin-1-yl}methyl)piperidin-1-yl]-1,2-oxazol-5-yl}butanoyl]pyrrolidine-2-carboxamide], the DC50 was less than 2.5 nM and the Dmax is more than 75%.
